The text below walks through data of US20070254055A1, “Therapeutic Avenanthramide Compounds” (TRUSTEES OF TUFTS COLLEGE, priority 2003, published 2007).

One test relates to eNOS mRNA. The test is described as follows: eNOS mRNA expression level by real time PCR. Type of test: cell-based, human. As to the method: Since NO is catalyzed by endothelium nitric oxide synthases (eNOS), the role of Avenanthramide in induction of eNOS expression level by real time PCR was examined. Total mRNA was extracted using RNesy Mini Kit (QIAGEN) and quantified spectrophotometrically at 260 nm. Twenty μl of first-strand cDNA was synthesized from 1.5 μg of total RNA by using 300 ng of random hexanucleotide primers and 200u of SuperScript II (Invitrogen) at 42 C. for 1 h followed by heat inactivation of reverse transcriptase at 70 C. for 15 min. Fifty μL of PCR reaction mixture contained 5 μL cDNA, up- and down-stream primers (200 nM) and 25 μL of SYBR Green was set up into the ABI 4400 to perform the amplification for 40 cycles with denaturation at 95 C. for 30 sec, annealing at 60 C. for 1 min and extension at 72 C. for 1 min. Primers designed based on the published gene sequences were synthesized from Tufts University Core Facility. The primer sequences used for eNOS were:
Beta-actin mRNA expression level as an internal control. […] The enhancing effect is dose-dependent and the pattern is consistent with the results from NO production (FIG. 3).

For test [1], the system named is human aortic smooth muscle cells (HSMC). The test is described as follows: FBS-induced [3H] thymidine incorporation in HSMC. In kind it is cell-based. The text has this: Synthetic Av-C was used in this experiment. […] The inhibitory effect of Avenanthramide was concentration-dependent.
(Incorporation of labelled thymidine or its analogues reports DNA synthesis.)

The test system of a further test is p27Kip1. The test is described as follows: p27Kip1 expression Western blot, A10 cells. As to conditions: 10% FBS, 20 h. Type of test: cell-based, rat. As to the method: (§1) Protein from 5×10^4 cells was subjected to electrophoresis on 7.5-10% SDS-polyacrylamide gels and electro-transferred to nirocellulose membrane. Nonspecific binding was blocked by incubating with Tris-buffered saline (TBS) [137 mM NaCl, and 15 mM Tris-HCl (pH 7.6)] containing 5% non-fat milk (w/v) for 1 h at room temperature and then probed with primary antibody against p53, p21, p27, cyclin D1 and pRb overnight. After washing in TBS-Tween 20 buffer (0.075% v/v), the membranes were incubated with horseradish peroxidase-conjugated anti-IgG antibody. Proteins bound to the primary antibodies were detected with ECL detection reagents.
(§2) Cyclin-dependent kinase (cdk) inhibitors play important roles in cell cycle progression. P21cip1 is the main target of p53 medicated cell cycle inhibition. […] The effect of Avn on this CDK inhibitor p21cip1 protein expression was determined by Western blotting. A10 cells were synchronized by growning in FBS-free medium for 24 h. The cells were then stimulated with 10% FBS in the absence or presence of different concentrations of substantially purified Avn-C. After 20 h, total cell lysates were prepared and subjected to SDS-PAGE followed by Western blot analysis to detect p21cip and p27kip. β-Actin expression was used as loading control. […]

For the next test, the system named is cyclin D1. The test is described as follows: Cyclin D1 expression Western blot, FBS-stimulated A10 cells. In kind it is cell-based, rat. As to conditions: 10% FBS, 20 h, dose-dependent. The method, then:
as §1
Cells were treated with 10% FBS in the presence and absence of substantially purified Avn-C as described above. 20 h after the addition of serum to quiescent A10 cells, the amount of cyclin D1 was measured by Western blotting using polyclonal anti-cyclin D1 antibody. β-Actin expression level was used as a loading control.

In test [2] the test system is A10 cells (rat embryonic aortic smooth muscle cell). The test is described as follows: Cell number counting, A10 cells. Type of test: cell-based.
Procedure: (§4) HSMC or A10 cells (rat embryonic aortic smooth muscle cell) were seeded into 6-well plate at a density of 0.5×10^4/well. Four hr later 120 μM of avenanthramide were added to each well. At different time points (2d, 3d and 4d) the cells were trypsinzied and the total cell number were counted using a hemocytometer. Trypan blue exclusion test was carried out to determine the cell viability.
The test system of another test is NO production of HAEC. The test is described as follows: NO production, DAF-2 fluorescence assay, HAEC. Type of test: cell-based, human. As to conditions: 120 μM, 24 h. From the text: (§3) In addition to its vasodilating feature, NO has antiatherosclerotic properties, such as prevention of platelet aggregation, leukocyte adhesion, smooth muscle cell proliferation, and the expression of genes involved in atherogenesis. In this study, the human aortic smooth muscle cells (HSMC) and human aortic endothelia cells (HEC) were used to determine if avenanthramides can influence the NO production level. Synthetic Av-C was used in this experiment. The quantification of NO production was performed by the 4,5 diaminofluorescein (DAF-2) fluorescence assay. Briefly, cells were seeded into 24-well plate and let them grow to 90% confluent condition. The cells were pretreated with different concentrations of Avenanthramide for 24 h. The culture medium was then changed to PBS containing 100 μM L-arginine, 1 μM bradykinin and L-NAME. Then 0.1 μM of DAF-2 was added to each well. After another 2 h of incubation, 200 μL of supernatants were transferred to black microplates and the fluorescence was measured with a fluorescence microplate reader calibrated for excitation at 485 nm and emission at 538 nm.

Test [3] has as its system human aortic smooth muscle cells (HSMC). The test is described as follows: Cell number counting, HSMC. In kind it is cell-based. As to conditions: 120 μM.
Procedure: as §4
The test system of another test is U937 cells. The test is described as follows: Hydrogen peroxide-induced ROS production in U937 cells (DCHF). In kind it is cell-based, human. As to conditions: 18 h pretreatment. The method, then:
Pretreatment of H2O2-stimulated U937 cells with 1, 5, and 10 μM of Avn reduced the ROS production by 22, 50, and 76%, respectively, indicating the inhibitory effect is dose-dependent.

In the next test the test system is p21cip1. The test is described as follows: p21cip1 expression Western blot, A10 cells. Type of test: cell-based, rat. As to conditions: 10% FBS, 20 h, highest level at 120 μM. The method, then: as §1, §2
In general terms: In western blotting, separated proteins are transferred to a membrane and probed.

For the next test, the system named is NO production of HSMC. The test is described as follows: NO production, DAF-2 fluorescence assay, HSMC. In kind it is cell-based, human.
Text: as §3

For the next test, the system named is VCAM-1. The test is described as follows: HASMC expression of VCAM-1. In kind it is cell-based, human.

pIC50: −log10 of the molar value.

On to `O=C(/C=C/c1ccc(O)c(O)c1)Nc1ccc(O)cc1C(=O)O` [Avn-C, Avenanthramide C], for which, in the test on eNOS mRNA (80 μM, HASMC), the “increase of eNOS mRNA expression level” value turned out to be 3.5 fold. Moreover, the “Fold Change, eNOS mRNA expression level” value amounted to 1.56 in the test with eNOS mRNA (Av. Con. 40 μM) and 2.39 in the test with eNOS mRNA (Av. Con. 80 μM). Besides, the “ΔCt eNOS-β-actin” value with eNOS mRNA (Av. Con. 40 μM) amounted to 7.0 ± 0.51; in the test with eNOS mRNA (Av. Con. 80 μM) it was 6.41 ± 0.48. The “inhibition of cell proliferation (serum-induced DNA synthesis)” value in [1] (120 μM, 10% FBS, 24 h) is given as “more than 50%”. Moreover, in test [1] ([3H] thymidine incorporation and cell number counting, read-out: IC50, serum-induced HASMC proliferation), the pIC50 was roughly 4.30. Also, the p27Kip1 protein expression result with p27Kip1 was “no significant effect”. The “FBS-induced cyclin D expression” value in the test with cyclin D1 is recorded as “attenuate”. In test [2] (120 μM), the “reduction in cell proliferation” value is listed as 50%. Also, the doubling time result is reported as “more than 48 hr” in [2] (A10, 120 μM) and “more than 48 hr” in test [3] (HSMC). Moreover, the “increase in NO production compared with control” value is on record as 8.8 folds in the test with NO production of HAEC and 3.0 folds with NO production of HSMC (120 μM, 24 h, HSMC). The “inhibition of cell growth” value in test [3] (4 days) is “more than 50%”. For the same compound, the results for the “reduction of H2O2-induced ROS production” value in the test with U937 cells (1 μM), in the test with U937 cells (5 μM) and in the test on U937 cells (10 μM) were 22%, 50% and 76%, respectively. Moreover, the p21 expression level entry in the test on p21cip1 was “increased significantly”. For the same compound, the “increase of NO production” value in the test on NO production of HSMC (80 μM, HASMC) was found to be 2.1 fold. For the same compound, the “HASMC expression of VCAM-1” value in the test with VCAM-1 is recorded as “not affected”.
